Counter-ions that a name gives are not always drawn.
What was measured:
human RORγt LBD = human RORγt LBD (Homo sapiens (Human), UniProt P51449); test: RORγt reporter assay (GAL4-RORγt LBD luciferase, HEK293T cells); format: cell-based; conditions: for RORγt reporter Assay, % inhibition @ 6 μM: HEK293T cells
Description: A reporter assay was used to test functional activity of RORγt modulatory compounds on transcriptional activation driven by the RORγt LBD. Cells used in the assay were co-transfected with two constructs. The first construct, pBIND-RORγt LBD, contained the wild type human RORγt LBD fused to the DNA binding domain of the GAL4 protein. The second construct, pGL4.31 (Promega Cat no. C935A), contained multiple GAL4 responsive DNA elements upstream of firefly luciferase. […] The mutant construct was called pBIND-RORγt-AF2. […] The pBIND vector contains the GAL4 DNA Binding Domain (GAL4 DBD) and the renilla luciferase gene under control of the SV40 promoter. Renilla luciferase expression serves as a control for transfection efficiency and cell viability.
The reporter assay was performed by transiently transfecting HEK293T cells with 5 μg of pBIND-RORγt LBD or pBIND-RORγt LBD-AF2 and 5 μg pGL4.31 (Promega Cat no. C935A) using Fugene 6 (Invitrogen Cat no. E2691) at a 1:6 ratio of DNA: Fugene 6 in a T-75 flask in which cells were at least 80% confluent. Twenty four hours after bulk transfection, cells were plated into 96-well plates at 50,000 cells/well in phenol-red free DMEM containing 5% Lipid Reduced FCS and Pen/Strep. Six hours after plating, cells were treated with compounds for 24 hours. Media was removed and cells were lysed with 50 μL 1x Glo Lysis Buffer (Promega). Dual Glo Luciferase Reagent (50 μL/well) was then added and firefly luciferase luminescence was read on an Envision after a ten minute incubation. Finally, Stop and Glo reagent (50 μL/well) was added and renilla luciferase luminescence was read on an Envision after a ten minute incubation. To calculate the effect of compounds on RORγt activity, the ratio of firefly to renilla luciferase was determined and plotted against compound concentration. Agonist compounds increase RORγt-driven luciferase expression, and antagonist or inverse agonist compounds decrease luciferase expression.

[1] = system: IL-17 production by CD4 T cells; test: Human Th17 assay; format: cell-based; conditions: IL-17 in supernatant after 3 days, human CD4+ T cells under Th17 differentiation
Description: The human Th17 assay tests the effect of RORγt modulatory compounds on IL-17 production by CD4 T cells under conditions which favor Th17 differentiation.
Total CD4^+ T cells were isolated from the peripheral blood mononuclear cells (PBMC) of healthy donors using a CD4^+ T cell isolation kit II, following the manufacturer's instructions (Miltenyi Biotec). Cells were resuspended in a medium of RPMI-1640 supplemented with 10% fetal bovine serum, penicillin, streptomycin, glutamate, and β-mercaptoethanol and were added to 96-well plates at 1.5×10^5 per 100 μL per well. 50 μL of compound at titrated concentrations in DMSO were added into each well at final DMSO concentration at 0.2%. Cells were incubated for 1 hour, then 50 μL of Th17 cell differentiation medium was added to each well. The final concentrations of antibodies and cytokines (R&D Systems) in differentiation medium were: 3×10^6/mL anti-CD3/CD28 beads (prepared using human T cell activation/expansion kit, Miltenyi Biotec), 10 μg/mL anti-IL4, 10 μg/mL anti-IFNγ, 10 ng/mL IL113, 10 ng/mL IL23, 50 ng/mL IL6, 3 ng/mL TGFβ and 20 U/mL IL2. Cells were cultured at 37° C. and 5% CO2 for 3 days. Supernatants were collected and the accumulated IL-17 in culture was measured by using MULTI-SPOT® Cytokine Plate following manufacture's instruction (Meso Scale Discovery). The plate was read using Sector Imager 6000, and IL-17 concentration was extrapolated from the standard curve. The IC50s were determined by GraphPad.

Sequence of human RORγt LBD (P51449 258-518): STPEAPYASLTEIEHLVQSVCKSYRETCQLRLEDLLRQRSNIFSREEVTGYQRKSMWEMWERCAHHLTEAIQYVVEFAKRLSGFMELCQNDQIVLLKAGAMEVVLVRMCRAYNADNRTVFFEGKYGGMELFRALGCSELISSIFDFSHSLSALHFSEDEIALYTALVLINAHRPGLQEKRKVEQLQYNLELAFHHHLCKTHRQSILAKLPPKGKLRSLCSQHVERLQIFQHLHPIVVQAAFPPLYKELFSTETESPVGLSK

Row | SMILES | RORγt reporter Assay, % inhibition @ 6 μM (human RORγt LBD) [%] | IC50 [1] [µM] | inhibition at 6 µM (human RORγt LBD; HEK-293T, read-out: RORγt reporter Assay, % inhibition @ 6 μM, 6 μM, HEK293T cells) [%] | IC50 ([1]; Homo sapiens, CD4+ T, 72 h) [µM]
1 | CCOc1nc2ccc(C(O)(c3ccc(OC)nc3)c3cncn3C)cc2c(Cl)c1Oc1ccccc1 (single isomer, unassigned) [Example 10c] | 103 | 0.095 | – | –
2 | CCOc1nc2ccc(C(O)(c3ccc(Cl)cc3)c3cncn3C)cc2c(Cl)c1Oc1ccccc1 (single isomer, unassigned) [Example 2a, (4-Chloro-2-ethoxy-3-phenoxyquinolin-6-yl)(4-chlorophenyl)(1-methyl-1H-imidazol-5-yl)methanol.TFA] | 88 | 0.61 | – | –
3 | CCN(CC)c1nc2ccc(C(O)(c3cncs3)c3cncn3C)cc2c(Cl)c1Oc1ccccc1 (centres unmarked) [Example 8, (4-Chloro-2-(diethylamino)-3-phenoxyquinolin-6-yl)(1-methyl-1H-imidazol-5-yl)(thiazol-5-yl)methanol.TFA] | – | – | 95 | 0.048
4 | CN(c1ccccc1)c1c(Cl)nc2ccc(C(O)(c3cccnc3)c3cccc(Cl)c3)cc2c1Cl (centres unmarked) [Example 35, (3-Chlorophenyl)(2,4-dichloro-3-(methyl(phenyl)amino)quinolin-6-yl)(pyridin-3-yl)methanol] | – | – | – | ~1
5 | Cn1cncc1C(O)(c1ccc(C(F)(F)F)nc1)c1ccc2nc(N3CCCC3)c(Oc3ccc(C#N)cc3)c(Cl)c2c1 (centres unmarked) [Example 33, 4-((4-Chloro-6-(hydroxy(1-methyl-1H-imidazol-5-yl)(6-(trifluoromethyl)pyridin-3-yl)methyl)-2-(pyrrolidin-1-yl)quinolin-3-yl)oxy)benzonitrile] | – | – | – | 0.088
6 | Cn1cncc1C(O)(c1ccc(C(F)(F)F)nc1)c1ccc2nc(N3CCC3)c(Oc3ccc(C#N)cc3)c(Cl)c2c1 (single isomer, unassigned) [Example 31c, 4-((2-(Azetidin-1-yl)-4-chloro-6-(hydroxy(1-methyl-1H-imidazol-5-yl)(6-(trifluoromethyl)pyridin-3-yl)methyl)quinolin-3-yl)oxy)benzonitrile] | – | 0.017 | – | –
7 | Cn1cncc1C(O)(c1ccc(C(F)(F)F)nc1)c1ccc2nc(N3CCC3)c(Oc3ccc(C#N)cc3)c(Cl)c2c1 (single isomer, unassigned) [Example 31b, 4-((2-(Azetidin-1-yl)-4-chloro-6-(hydroxy(1-methyl-1H-imidazol-5-yl)(6-(trifluoromethyl)pyridin-3-yl)methyl)quinolin-3-yl)oxy)benzonitrile] | – | ~0.1 | – | –
8 | CCN(c1ccccc1)c1c(Cl)nc2ccc(C(O)(c3cccnc3)c3cccc(Cl)c3)cc2c1Cl (centres unmarked) [Example 39, (3-Chlorophenyl)(2,4-dichloro-3-(ethyl(phenyl)amino)quinolin-6-yl)(pyridin-3-yl)methanol] | – | – | – | > 6

More lines, main results first:

Row | RORγt reporter Assay, % inhibition @ 6 μM (human RORγt LBD) [%] | IC50 [1] [µM] | inhibition at 6 µM (human RORγt LBD; HEK-293T, read-out: RORγt reporter Assay, % inhibition @ 6 μM, 6 μM, HEK293T cells) [%] | SMILES | IC50 ([1]; Homo sapiens, CD4+ T, 72 h) [µM]
9 | 89 | 0.49 | – | CCN(CC)c1nc2ccc(C(O)(c3ccc(C(F)(F)F)nc3)c3cncn3C)cc2c(C(F)(F)F)c1Oc1ccc(Cl)cc1 (single isomer, unassigned) [Example 27c, (3-(4-Chlorophenoxy)-2-(diethylamino)-4-(trifluoromethyl)quinolin-6-yl)(1-methyl-1H-imidazol-5-yl)(6-(trifluoromethyl)pyridin-3-yl)methanol] | –
10 | 97 | 0.02 | – | Cn1cncc1C(O)(c1ccc(C(F)(F)F)nc1)c1ccc2nc(N3CCC3)c(Oc3ccc(Cl)cc3)c(Cl)c2c1 (single isomer, unassigned) [Example 30c, (2-(Azetidin-1-yl)-4-chloro-3-(4-chlorophenoxy)quinolin-6-yl)(1-methyl-1H-imidazol-5-yl)(6-(trifluoromethyl)pyridin-3-yl)methanol] | –
11 | 104 | – | – | CCN(CC)c1nc2ccc(C(O)(c3ccc(Cl)cc3)c3cncn3C)cc2c(Cl)c1Oc1ccccc1 (single isomer, unassigned) [Example 3c, (4-Chloro-2-(diethylamino)-3-phenoxyquinolin-6-yl)(4-chlorophenyl)(1-methyl-1H-imidazol-5-yl)methanol] | 0.12
